≈ marks a conversion by molar mass, not a printed value.
Tests used:
Type in all cases: functional
Klebsiella pneumoniae = assay: microbe, parasite or virus in culture; details: ATCC 27736, 24 h
Description: Antimicrobial activity against Klebsiella pneumoniae ATCC 27736 after 24 hrs by standard microbroth dilution assay

Escherichia coli = assay: microbe, parasite or virus in culture; details: ATCC 9637, 24 h
Description: Antimicrobial activity against Escherichia coli ATCC 9637 after 24 hrs by standard microbroth dilution assay

Pseudomonas aeruginosa = assay: Antimicrobial activity against Pseudomonas aeruginosa ATCC BAA427 after 24 hrs by standard microbroth dilution assay
Staphylococcus aureus = assay: microbe, parasite or virus in culture; details: ATCC 25923, 24 h
Description: Antimicrobial activity against Staphylococcus aureus ATCC 25923 after 24 hrs by standard microbroth dilution assay

Candida albicans = assay: Antimicrobial activity against Candida albicans after 48 hrs by standard microbroth dilution assay
Cryptococcus neoformans = assay: Antimicrobial activity against Cryptococcus neoformans after 72 hrs by standard microbroth dilution assay
Sporothrix schenckii = assay: Antimicrobial activity against Sporothrix schenckii after 72 hrs by standard microbroth dilution assay
[1] = system: Trichophyton mentagrophytes; assay: Antimicrobial activity against Trichophyton mentagrophytes after 96 hrs by standard microbroth dilution assay
Aspergillus fumigatus = assay: Antimicrobial activity against Aspergillus fumigatus after 72 hrs by standard microbroth dilution assay
Candida parapsilosis = assay: Antimicrobial activity against Candida parapsilosis after 48 hrs by standard microbroth dilution assay; details: Lodderomyces parapsilosis

Clc1cccc2c1CCC(Cn1cncn1)/C2=N/OCc1ccccc1 (stereo not given)
MIC (Klebsiella pneumoniae): > 50 mg/L | MIC (Escherichia coli): 25 mg/L (≈ 68.1 µM) | MIC (Pseudomonas aeruginosa): > 50 mg/L | MIC (Staphylococcus aureus): > 50 mg/L | MIC (Candida albicans): > 50 mg/L | MIC (Cryptococcus neoformans): > 50 mg/L | MIC (Sporothrix schenckii): > 50 mg/L | MIC [1]: > 50 mg/L | MIC (Aspergillus fumigatus): > 50 mg/L | MIC (Candida parapsilosis): > 50 mg/L

Clc1cccc(CO/N=C2\c3cccc(Cl)c3CCC2Cn2cncn2)c1 (stereo not given)
MIC (Klebsiella pneumoniae): > 50 mg/L | MIC (Escherichia coli): 6.25 mg/L (≈ 15.6 µM) | MIC (Pseudomonas aeruginosa): > 50 mg/L | MIC (Staphylococcus aureus): > 50 mg/L | MIC (Candida albicans): > 50 mg/L | MIC (Cryptococcus neoformans): > 50 mg/L | MIC (Sporothrix schenckii): > 50 mg/L | MIC [1]: > 50 mg/L | MIC (Aspergillus fumigatus): > 50 mg/L | MIC (Candida parapsilosis): > 50 mg/L

Cc1cccc2c1CCC(Cn1ccnc1)/C2=N/OCc1ccccc1 (stereo not given)
MIC (Klebsiella pneumoniae): 6.25 mg/L (≈ 18.1 µM) | MIC (Escherichia coli): 0.781 mg/L (≈ 2.26 µM) | MIC (Pseudomonas aeruginosa): > 50 mg/L | MIC (Staphylococcus aureus): 1.56 mg/L (≈ 4.52 µM) | MIC (Candida albicans): > 50 mg/L | MIC (Cryptococcus neoformans): > 50 mg/L | MIC (Sporothrix schenckii): > 50 mg/L | MIC [1]: > 50 mg/L | MIC (Aspergillus fumigatus): > 50 mg/L | MIC (Candida parapsilosis): > 50 mg/L

Clc1cccc(CO/N=C2\c3cccc(Br)c3CCC2Cn2cncn2)c1 (stereo not given)
MIC (Klebsiella pneumoniae): > 50 mg/L | MIC (Escherichia coli): 3.12 mg/L (≈ 7.01 µM) | MIC (Pseudomonas aeruginosa): > 50 mg/L | MIC (Staphylococcus aureus): 6.25 mg/L (≈ 14 µM) | MIC (Candida albicans): > 50 mg/L | MIC (Cryptococcus neoformans): > 50 mg/L | MIC (Sporothrix schenckii): > 50 mg/L | MIC [1]: > 50 mg/L | MIC (Aspergillus fumigatus): > 50 mg/L | MIC (Candida parapsilosis): > 50 mg/L

Fc1cccc2c1CCC(Cn1ccnc1)/C2=N/OCc1ccccc1 (stereo not given)
MIC (Klebsiella pneumoniae): 6.25 mg/L (≈ 17.9 µM) | MIC (Escherichia coli): 0.781 mg/L (≈ 2.24 µM) | MIC (Pseudomonas aeruginosa): > 50 mg/L | MIC (Staphylococcus aureus): 3.12 mg/L (≈ 8.94 µM) | MIC (Candida albicans): > 50 mg/L | MIC (Cryptococcus neoformans): > 50 mg/L | MIC (Sporothrix schenckii): > 50 mg/L | MIC [1]: > 50 mg/L | MIC (Aspergillus fumigatus): > 50 mg/L | MIC (Candida parapsilosis): > 50 mg/L

Fc1cccc2c1CCC(Cn1ccnc1)/C2=N/OCc1cccc(Cl)c1 (stereo not given)
MIC (Klebsiella pneumoniae): 1.56 mg/L (≈ 4.07 µM) | MIC (Escherichia coli): 0.391 mg/L (≈ 1.02 µM) | MIC (Pseudomonas aeruginosa): > 50 mg/L | MIC (Staphylococcus aureus): 0.781 mg/L (≈ 2.03 µM) | MIC (Candida albicans): > 50 mg/L | MIC (Cryptococcus neoformans): > 50 mg/L | MIC (Sporothrix schenckii): > 50 mg/L | MIC [1]: > 50 mg/L | MIC (Aspergillus fumigatus): > 50 mg/L | MIC (Candida parapsilosis): > 50 mg/L

Clc1ccc(CO/N=C(\Cn2ccnc2)c2ccc(Cl)cc2Cl)c(Cl)c1 [OXICONAZOLE]
MIC (Klebsiella pneumoniae): > 50 mg/L | MIC (Escherichia coli): > 50 mg/L | MIC (Pseudomonas aeruginosa): > 50 mg/L | MIC (Staphylococcus aureus): 6.25 mg/L (≈ 14.6 µM) | MIC (Candida albicans): 12.5 mg/L (≈ 29.1 µM) | MIC (Cryptococcus neoformans): 0.01 mg/L (≈ 0.0233 µM) | MIC (Sporothrix schenckii): 3.12 mg/L (≈ 7.27 µM) | MIC [1]: 6.25 mg/L (≈ 14.6 µM) | MIC (Aspergillus fumigatus): 6.25 mg/L (≈ 14.6 µM) | MIC (Candida parapsilosis): 3.12 mg/L (≈ 7.27 µM)

Cc1cccc2c1CCC(Cn1ccnc1)/C2=N/OCc1cccc(Cl)c1 (stereo not given)
MIC (Klebsiella pneumoniae): 1.56 mg/L (≈ 4.11 µM) | MIC (Escherichia coli): 0.391 mg/L (≈ 1.03 µM) | MIC (Pseudomonas aeruginosa): > 50 mg/L | MIC (Staphylococcus aureus): 0.781 mg/L (≈ 2.06 µM) | MIC (Candida albicans): > 50 mg/L | MIC (Cryptococcus neoformans): > 50 mg/L | MIC (Sporothrix schenckii): > 50 mg/L | MIC [1]: > 50 mg/L | MIC (Aspergillus fumigatus): 50 mg/L (≈ 132 µM) | MIC (Candida parapsilosis): > 50 mg/L

Clc1cccc(CO/N=C2\c3ccccc3CCC2Cn2cncn2)c1 (stereo not given)
MIC (Klebsiella pneumoniae): > 50 mg/L | MIC (Escherichia coli): 12.2 mg/L (≈ 33.4 µM) | MIC (Pseudomonas aeruginosa): > 50 mg/L | MIC (Staphylococcus aureus): 12.2 mg/L (≈ 33.4 µM) | MIC (Candida albicans): > 50 mg/L | MIC (Cryptococcus neoformans): > 50 mg/L | MIC (Sporothrix schenckii): > 50 mg/L | MIC [1]: > 50 mg/L | MIC (Aspergillus fumigatus): > 50 mg/L | MIC (Candida parapsilosis): > 50 mg/L

Clc1cccc(CO/N=C2/c3ccccc3CCC2Cn2ccnc2)c1 (stereo not given)
MIC (Klebsiella pneumoniae): > 50 mg/L | MIC (Escherichia coli): > 50 mg/L | MIC (Pseudomonas aeruginosa): > 50 mg/L | MIC (Staphylococcus aureus): 6.25 mg/L (≈ 17.1 µM) | MIC (Candida albicans): > 50 mg/L | MIC (Cryptococcus neoformans): > 50 mg/L | MIC (Sporothrix schenckii): > 50 mg/L | MIC [1]: 25 mg/L (≈ 68.3 µM) | MIC (Aspergillus fumigatus): > 50 mg/L | MIC (Candida parapsilosis): > 50 mg/L

Brc1cccc2c1CCC(Cn1cncn1)/C2=N/OCc1ccccc1 (stereo not given)
MIC (Klebsiella pneumoniae): > 50 mg/L | MIC (Escherichia coli): 6.25 mg/L (≈ 15.2 µM) | MIC (Pseudomonas aeruginosa): > 50 mg/L | MIC (Staphylococcus aureus): 12.5 mg/L (≈ 30.4 µM) | MIC (Candida albicans): > 50 mg/L | MIC (Cryptococcus neoformans): > 50 mg/L | MIC (Sporothrix schenckii): > 50 mg/L | MIC [1]: > 50 mg/L | MIC (Aspergillus fumigatus): > 50 mg/L | MIC (Candida parapsilosis): > 50 mg/L

Fc1cccc2c1CCC(Cn1cncn1)/C2=N/OCc1cccc(Cl)c1 (stereo not given)
MIC (Klebsiella pneumoniae): > 50 mg/L | MIC (Escherichia coli): 50 mg/L (≈ 130 µM) | MIC (Pseudomonas aeruginosa): > 50 mg/L | MIC (Staphylococcus aureus): > 50 mg/L | MIC (Candida albicans): > 50 mg/L | MIC (Cryptococcus neoformans): > 50 mg/L | MIC (Sporothrix schenckii): > 50 mg/L | MIC [1]: > 50 mg/L | MIC (Aspergillus fumigatus): > 50 mg/L | MIC (Candida parapsilosis): > 50 mg/L

Clc1cccc(CO/N=C2\c3cccc(Br)c3CCC2Cn2ccnc2)c1 (stereo not given)
MIC (Klebsiella pneumoniae): 1.56 mg/L (≈ 3.51 µM) | MIC (Escherichia coli): 0.391 mg/L (≈ 0.879 µM) | MIC (Pseudomonas aeruginosa): > 50 mg/L | MIC (Staphylococcus aureus): 0.781 mg/L (≈ 1.76 µM) | MIC (Candida albicans): > 50 mg/L | MIC (Cryptococcus neoformans): > 50 mg/L | MIC (Sporothrix schenckii): > 50 mg/L | MIC [1]: > 50 mg/L | MIC (Aspergillus fumigatus): > 50 mg/L | MIC (Candida parapsilosis): 50 mg/L (≈ 112 µM)

Source: ChEMBL document CHEMBL1154454, “Tetrahydronaphthyl azole oxime ethers: the conformationally rigid analogues of oxiconazole as antibacterials” (2009)
